From ChEMBL document CHEMBL5523738, “Lipid Trolling to Optimize A3 Adenosine Receptor-Positive Allosteric Modulators (PAMs)” (J Med Chem, 2024)
Each block holds one compound with its values, some of them ahead of it. Activity calls are given as the source filed them. No cut-off for these calls is given here.

Legend:
[1] = biological target: T1, Adenosine receptor A3 (Mus musculus) (UniProt Q61618); experiment: (§1) Positive allosteric modulation of full length mouse A3 adenosine receptor transfected in HEK293 cell membranes assessed as slow down of [125I]I-AB-MECA dissociation rate at 10 uM preincubated with radioligand for 3 hrs followed by NECA and compound addition and measured upto 180 mins by gamma counter method; conditions: Membrane, filed as positive allosteric modulator
T1 sequence (whole entry): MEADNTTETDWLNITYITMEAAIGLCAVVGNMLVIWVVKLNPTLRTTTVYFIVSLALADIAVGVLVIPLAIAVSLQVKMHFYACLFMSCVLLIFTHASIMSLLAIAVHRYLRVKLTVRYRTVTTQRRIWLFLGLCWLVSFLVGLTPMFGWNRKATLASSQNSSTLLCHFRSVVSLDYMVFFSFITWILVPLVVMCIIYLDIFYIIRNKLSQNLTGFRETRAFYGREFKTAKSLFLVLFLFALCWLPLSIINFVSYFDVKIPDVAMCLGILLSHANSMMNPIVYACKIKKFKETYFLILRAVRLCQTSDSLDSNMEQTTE

[2] = biological target: T2, Adenosine receptor A3 (Homo sapiens) (UniProt P0DMS8); experiment: Antagonist activity at human A3 adenosine receptor transfected in HEK293 cell membranes assessed as rightward shift in 5-(2-chloro-6-((3-iodobenzyl)amino)-9H-purin-9-yl)-3,4-dihydroxy-N-methyltetrahydrofuran-2-carboxamide activation curve pretreated for 1 hr followed by agonist addition and measured after 2 hrs by liquid scintillation counting method; assay type: functional; conditions: Membrane, filed as antagonist, time 3.0 hrs
T2 sequence (whole entry): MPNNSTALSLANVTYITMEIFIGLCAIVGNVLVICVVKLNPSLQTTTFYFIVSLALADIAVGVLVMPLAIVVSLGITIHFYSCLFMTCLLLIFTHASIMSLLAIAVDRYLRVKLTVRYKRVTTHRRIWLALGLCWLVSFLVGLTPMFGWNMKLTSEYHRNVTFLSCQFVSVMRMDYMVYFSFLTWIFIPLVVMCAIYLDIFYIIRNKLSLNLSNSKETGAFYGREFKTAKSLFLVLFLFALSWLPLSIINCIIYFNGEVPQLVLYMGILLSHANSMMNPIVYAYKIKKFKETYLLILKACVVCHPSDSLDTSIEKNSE

[3] = biological target: T2, Adenosine receptor A3 (Homo sapiens); experiment: Positive allosteric modulation of human A3 adenosine receptor transfected in HEK293 cell membranes assessed as slow down of [125I]I-AB-MECA dissociation rate at 10 uM preincubated with radioligand for 3 hrs followed by NECA and compound addition and measured after 60 mins by gamma counter method; conditions: Membrane, filed as positive allosteric modulator
[4] = biological target: T2, Adenosine receptor A3 (Homo sapiens); experiment: Positive allosteric modulation of human A3 adenosine receptor transfected in HEK293 cell membranes assessed as potentiation of 5-(2-chloro-6-((3-iodobenzyl)amino)-9H-purin-9-yl)-3,4-dihydroxy-N-methyltetrahydrofuran-2-carboxamide induced [35S]GTP-gammaS binding by measuring fold increase in agonist …; conditions: Membrane, filed as positive allosteric modulator, dose 1.0 µM, time 3.0 hrs
[5] = biological target: T2, Adenosine receptor A3 (Homo sapiens); experiment: Orthosteric antagonist activity at human A3 adenosine receptor transfected in HEK293 cell membranes assessed as inhibition of [125I]I-AB-MECA binding at equilibrium at 10 uM measured for 18 hrs by gamma counter method; conditions: Membrane, filed as antagonist
[6] = biological target: Mu-type opioid receptor (Homo sapiens) (UniProt P35372); experiment: Binding affinity to MOR (unknown origin)
[7] = biological target: 5-hydroxytryptamine receptor 3A (Homo sapiens) (UniProt P46098); experiment: Binding affinity to 5-HT3 (unknown origin)
[8] = biological target: T1, Adenosine receptor A3 (Mus musculus); experiment: Orthosteric antagonist activity at full length mouse A3 adenosine receptor transfected in HEK293 cell membranes assessed as inhibition of [125I]I-AB-MECA binding at equilibrium at 10 uM by gamma counter method; conditions: Membrane, filed as antagonist
[9] = biological target: GABA-A receptor; anion channel (Homo sapiens) (UniProt P14867+P47870+P18507+P28472+P48169+Q99928+Q9UN88+P34903+O00591+O14764+Q8N1C3+P18505+P78334+P47869+P31644+Q16445); experiment: Binding affinity to GABA-A receptor (unknown origin); assay type: protein-complex assay
[10] = biological target: Histamine H2 receptor (Homo sapiens) (UniProt P25021); experiment: Binding affinity to histamine H2 receptor (unknown origin)
Homo sapiens = species on record: Homo sapiens; experiment: Binding affinity to BZP receptor (unknown origin)
[11] = biological target: Beta-2 adrenergic receptor (Homo sapiens) (UniProt P07550); experiment: Binding affinity to beta2 adrenergic receptor (unknown origin)
[12] = biological target: Alpha-1A adrenergic receptor (Homo sapiens) (UniProt P35348); experiment: Binding affinity to alpha1A adrenergic receptor (unknown origin)
[13] = biological target: D(1A) dopamine receptor (Homo sapiens) (UniProt P21728); experiment: Binding affinity to D1 receptor (unknown origin)
[14] = biological target: 5-hydroxytryptamine receptor 5A (Homo sapiens) (UniProt P47898); experiment: Binding affinity to 5-HT5A (unknown origin)
[15] = biological target: Muscarinic acetylcholine receptor M1 (Homo sapiens) (UniProt P11229); experiment: Binding affinity to M1 receptor (unknown origin)
[16] = biological target: Muscarinic acetylcholine receptor M4 (Homo sapiens) (UniProt P08173); experiment: Binding affinity to M4 receptor (unknown origin)
[17] = biological target: D(2) dopamine receptor (Homo sapiens) (UniProt P14416); experiment: Binding affinity to D2 receptor (unknown origin)
[18] = biological target: Delta-type opioid receptor (Homo sapiens) (UniProt P41143); experiment: Binding affinity to DOR (unknown origin)
[19] = biological target: Muscarinic acetylcholine receptor M2 (Homo sapiens) (UniProt P08172); experiment: Binding affinity to M2 receptor (unknown origin)
[20] = biological target: 5-hydroxytryptamine receptor 1E (Homo sapiens) (UniProt P28566); experiment: Binding affinity to 5-HT1E (unknown origin)
[21] = biological target: Beta-3 adrenergic receptor (Homo sapiens) (UniProt P13945); experiment: Binding affinity to beta3 adrenergic receptor (unknown origin)
[22] = biological target: Alpha-1D adrenergic receptor (Homo sapiens) (UniProt P25100); experiment: Binding affinity to alpha1D adrenergic receptor (unknown origin)
[23] = biological target: Kappa-type opioid receptor (Homo sapiens) (UniProt P41145); experiment: Binding affinity to KOR (unknown origin)
[24] = biological target: T2, Adenosine receptor A3 (Homo sapiens); experiment: Positive allosteric modulation of human A3 adenosine receptor transfected in HEK293 cell membranes assessed as potentiation of MRS5698 induced inhibition of cAMP formation by measuring fold increase in agonist potency at 3 uM relative to control; assay type: functional; conditions: Membrane, filed as positive allosteric modulator
[25] = biological target: Adenosine receptor A1 (Homo sapiens) (UniProt P30542); experiment: Positive allosteric modulation of human A1 adenosine receptor transfected in HEK293 cells assessed as potentiation of […] induced inhibition of cAMP formation at 3 uM; assay type: functional, cell-based
[26] = biological target: T1, Adenosine receptor A3 (Mus musculus); experiment: as §1, with “assessed as reduction in [125I]I-AB-MECA dissociation” for “assessed as slow down of [125I]I-AB-MECA dissociation”, “rate at 1 to 10 uM” for “rate at 10 uM”; conditions: Membrane, filed as positive allosteric modulator, dose 1-10 µM
[27] = biological target: T2, Adenosine receptor A3 (Homo sapiens); experiment: Positive allosteric modulation of human A3 adenosine receptor transfected in HEK293 cell membranes assessed as potentiation of MRS5698 induced inhibition of cAMP formation by measuring maximal efficacy of agonist at 3 uM (reference value: 100%); assay type: functional; conditions: Membrane, filed as positive allosteric modulator
[28] = biological target: T2, Adenosine receptor A3 (Homo sapiens); experiment: (§2) Positive allosteric modulation of human A3 adenosine receptor transfected in HEK293 cell membranes assessed as potentiation of 5-(2-chloro-6-((3-iodobenzyl)amino)-9H-purin-9-yl)-3,4-dihydroxy-N-methyltetrahydrofuran-2-carboxamide induced [35S]GTP-gammaS binding by measuring maximal efficacy of agonist at 0.001 uM pretreated for 1 hr followed by agonist addition and measured after 2 hrs by liquid scintillation counting method (reference value: 100 +/- 3%); conditions: Membrane, filed as positive allosteric modulator, time 3.0 hrs
[29] = biological target: T1, Adenosine receptor A3 (Mus musculus); experiment: as §1, with “reduction in” for “slow down of”, “0.1” for “10”; conditions: Membrane
[30] = biological target: T2, Adenosine receptor A3 (Homo sapiens); experiment: as §2, with “0.01” for “0.001”; conditions: Membrane, filed as positive allosteric modulator, time 3.0 hrs
[31] = biological target: T2, Adenosine receptor A3 (Homo sapiens); experiment: Positive allosteric modulation of human A3 adenosine receptor transfected in HEK293 cell membranes assessed as potentiation of NECA induced ERK activation at 3 uM; conditions: Membrane
[32] = biological target: T2, Adenosine receptor A3 (Homo sapiens); experiment: Positive allosteric modulation of human A3 adenosine receptor transfected in HEK293 cell membranes assessed as potentiation of MRS5698 induced ERK activation at 3 uM; conditions: Membrane

Chain of Histamine H2 receptor (Homo sapiens) (P25021 whole entry): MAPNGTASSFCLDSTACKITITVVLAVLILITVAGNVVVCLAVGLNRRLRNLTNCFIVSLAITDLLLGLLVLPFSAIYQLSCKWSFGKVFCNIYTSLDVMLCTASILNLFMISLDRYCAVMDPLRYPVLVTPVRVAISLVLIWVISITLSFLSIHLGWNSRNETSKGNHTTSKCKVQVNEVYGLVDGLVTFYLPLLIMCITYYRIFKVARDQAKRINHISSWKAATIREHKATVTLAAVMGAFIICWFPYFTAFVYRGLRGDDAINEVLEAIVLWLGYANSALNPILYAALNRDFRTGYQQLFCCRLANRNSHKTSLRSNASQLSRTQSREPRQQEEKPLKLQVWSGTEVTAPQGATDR
Chain of Muscarinic acetylcholine receptor M1 (Homo sapiens) (P11229 whole entry): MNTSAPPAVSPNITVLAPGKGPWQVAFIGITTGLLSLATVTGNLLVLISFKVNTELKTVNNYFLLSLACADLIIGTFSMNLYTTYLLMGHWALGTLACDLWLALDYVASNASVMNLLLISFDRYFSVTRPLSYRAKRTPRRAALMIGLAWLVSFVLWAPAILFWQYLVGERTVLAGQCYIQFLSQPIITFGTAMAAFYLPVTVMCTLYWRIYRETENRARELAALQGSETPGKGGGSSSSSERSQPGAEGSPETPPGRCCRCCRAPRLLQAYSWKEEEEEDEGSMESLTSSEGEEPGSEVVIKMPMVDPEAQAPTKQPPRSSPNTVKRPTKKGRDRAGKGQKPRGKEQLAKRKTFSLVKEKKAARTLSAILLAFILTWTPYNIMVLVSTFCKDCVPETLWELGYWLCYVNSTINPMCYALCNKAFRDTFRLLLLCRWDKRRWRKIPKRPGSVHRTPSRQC
Chain of Muscarinic acetylcholine receptor M4 (Homo sapiens) (P08173 whole entry): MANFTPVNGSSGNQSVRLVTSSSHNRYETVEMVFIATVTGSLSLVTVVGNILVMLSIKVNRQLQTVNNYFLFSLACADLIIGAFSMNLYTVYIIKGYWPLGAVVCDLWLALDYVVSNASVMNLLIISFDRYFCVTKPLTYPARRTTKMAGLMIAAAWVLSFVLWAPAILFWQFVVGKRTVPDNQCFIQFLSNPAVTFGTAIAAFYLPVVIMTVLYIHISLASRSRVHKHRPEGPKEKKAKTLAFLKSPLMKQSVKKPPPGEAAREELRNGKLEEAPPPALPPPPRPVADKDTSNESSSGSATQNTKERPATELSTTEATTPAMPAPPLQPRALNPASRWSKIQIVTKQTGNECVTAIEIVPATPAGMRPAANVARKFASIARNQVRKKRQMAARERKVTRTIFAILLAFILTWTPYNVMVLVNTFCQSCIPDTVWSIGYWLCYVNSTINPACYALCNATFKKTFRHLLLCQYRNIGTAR
Chain of Beta-3 adrenergic receptor (Homo sapiens) (P13945 whole entry, looked up): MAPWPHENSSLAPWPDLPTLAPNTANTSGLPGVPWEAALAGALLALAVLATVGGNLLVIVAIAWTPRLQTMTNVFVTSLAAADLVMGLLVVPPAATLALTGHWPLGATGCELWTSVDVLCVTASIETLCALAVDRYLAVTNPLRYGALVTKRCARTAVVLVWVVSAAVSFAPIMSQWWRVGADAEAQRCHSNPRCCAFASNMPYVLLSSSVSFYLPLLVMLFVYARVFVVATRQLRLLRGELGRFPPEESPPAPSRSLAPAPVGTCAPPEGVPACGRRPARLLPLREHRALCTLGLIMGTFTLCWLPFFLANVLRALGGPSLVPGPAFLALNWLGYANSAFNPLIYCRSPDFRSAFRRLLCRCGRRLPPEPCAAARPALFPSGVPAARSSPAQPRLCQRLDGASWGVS
Chain of Delta-type opioid receptor (Homo sapiens) (P41143 whole entry): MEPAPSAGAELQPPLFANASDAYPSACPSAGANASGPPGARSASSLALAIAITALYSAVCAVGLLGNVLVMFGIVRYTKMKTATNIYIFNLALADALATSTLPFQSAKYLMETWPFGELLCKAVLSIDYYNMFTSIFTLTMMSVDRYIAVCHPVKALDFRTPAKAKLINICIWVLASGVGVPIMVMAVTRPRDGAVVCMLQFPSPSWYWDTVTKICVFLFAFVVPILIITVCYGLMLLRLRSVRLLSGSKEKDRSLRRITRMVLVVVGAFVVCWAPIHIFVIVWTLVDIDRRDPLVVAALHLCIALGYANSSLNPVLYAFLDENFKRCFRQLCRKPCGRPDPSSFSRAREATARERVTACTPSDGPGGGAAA
Chain of Kappa-type opioid receptor (Homo sapiens) (P41145 whole entry): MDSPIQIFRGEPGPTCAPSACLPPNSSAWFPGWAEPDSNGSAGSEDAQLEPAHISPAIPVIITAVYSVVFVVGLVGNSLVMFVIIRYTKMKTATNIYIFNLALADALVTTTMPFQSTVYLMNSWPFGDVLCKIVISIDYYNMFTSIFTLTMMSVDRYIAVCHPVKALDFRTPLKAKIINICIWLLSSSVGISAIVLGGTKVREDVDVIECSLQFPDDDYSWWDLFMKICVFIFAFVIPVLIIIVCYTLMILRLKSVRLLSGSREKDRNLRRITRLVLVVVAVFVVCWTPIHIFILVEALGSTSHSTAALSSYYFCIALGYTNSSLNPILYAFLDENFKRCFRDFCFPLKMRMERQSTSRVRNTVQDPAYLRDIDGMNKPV
Chain of 5-hydroxytryptamine receptor 5A (Homo sapiens) (P47898 whole entry): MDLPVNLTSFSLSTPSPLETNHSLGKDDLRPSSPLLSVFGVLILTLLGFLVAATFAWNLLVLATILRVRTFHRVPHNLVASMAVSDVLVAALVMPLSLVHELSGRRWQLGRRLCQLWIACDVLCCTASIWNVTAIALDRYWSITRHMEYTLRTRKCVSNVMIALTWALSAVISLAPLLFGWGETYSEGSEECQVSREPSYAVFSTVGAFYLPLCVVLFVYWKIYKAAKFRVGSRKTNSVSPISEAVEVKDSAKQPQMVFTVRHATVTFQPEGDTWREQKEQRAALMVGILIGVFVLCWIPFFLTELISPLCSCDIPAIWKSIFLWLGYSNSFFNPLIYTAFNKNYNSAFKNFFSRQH
Chain of D(2) dopamine receptor (Homo sapiens) (P14416 whole entry): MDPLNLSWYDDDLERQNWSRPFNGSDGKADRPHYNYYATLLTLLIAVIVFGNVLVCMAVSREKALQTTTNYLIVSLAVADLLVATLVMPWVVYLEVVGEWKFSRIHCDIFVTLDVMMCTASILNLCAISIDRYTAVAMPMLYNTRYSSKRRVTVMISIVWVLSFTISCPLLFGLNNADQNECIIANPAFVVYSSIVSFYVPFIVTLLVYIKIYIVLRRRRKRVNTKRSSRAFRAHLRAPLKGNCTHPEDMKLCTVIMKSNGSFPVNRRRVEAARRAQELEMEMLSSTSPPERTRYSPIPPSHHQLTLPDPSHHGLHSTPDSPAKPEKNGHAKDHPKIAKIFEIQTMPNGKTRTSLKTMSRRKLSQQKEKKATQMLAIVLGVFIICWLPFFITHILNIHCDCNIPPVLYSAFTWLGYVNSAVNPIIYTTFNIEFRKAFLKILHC
Chain of Alpha-1A adrenergic receptor (Homo sapiens) (P35348 whole entry): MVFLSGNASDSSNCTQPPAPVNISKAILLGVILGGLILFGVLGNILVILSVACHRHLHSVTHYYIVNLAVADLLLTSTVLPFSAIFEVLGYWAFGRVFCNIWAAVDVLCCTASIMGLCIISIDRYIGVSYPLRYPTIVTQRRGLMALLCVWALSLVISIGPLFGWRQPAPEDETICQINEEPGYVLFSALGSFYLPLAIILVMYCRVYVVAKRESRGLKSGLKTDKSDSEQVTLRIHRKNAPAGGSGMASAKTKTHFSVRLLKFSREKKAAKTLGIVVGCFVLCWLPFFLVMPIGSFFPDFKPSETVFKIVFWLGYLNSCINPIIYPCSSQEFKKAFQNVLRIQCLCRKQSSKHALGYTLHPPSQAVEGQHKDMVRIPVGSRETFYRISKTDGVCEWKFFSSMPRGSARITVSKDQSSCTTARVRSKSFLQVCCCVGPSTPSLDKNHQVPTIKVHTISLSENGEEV
Chain of D(1A) dopamine receptor (Homo sapiens) (P21728 whole entry): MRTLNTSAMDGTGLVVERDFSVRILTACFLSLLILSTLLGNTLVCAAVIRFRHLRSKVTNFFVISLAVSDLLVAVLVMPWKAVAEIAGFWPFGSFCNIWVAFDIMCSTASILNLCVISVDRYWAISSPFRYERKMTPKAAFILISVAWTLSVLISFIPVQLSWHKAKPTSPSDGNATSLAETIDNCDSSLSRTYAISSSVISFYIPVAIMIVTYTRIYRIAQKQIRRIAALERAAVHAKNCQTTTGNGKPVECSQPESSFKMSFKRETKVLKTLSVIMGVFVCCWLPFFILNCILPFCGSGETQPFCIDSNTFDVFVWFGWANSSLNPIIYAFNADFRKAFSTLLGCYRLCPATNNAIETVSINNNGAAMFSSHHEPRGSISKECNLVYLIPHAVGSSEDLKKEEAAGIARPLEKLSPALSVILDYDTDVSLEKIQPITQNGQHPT
Chain of Mu-type opioid receptor (Homo sapiens) (P35372 whole entry): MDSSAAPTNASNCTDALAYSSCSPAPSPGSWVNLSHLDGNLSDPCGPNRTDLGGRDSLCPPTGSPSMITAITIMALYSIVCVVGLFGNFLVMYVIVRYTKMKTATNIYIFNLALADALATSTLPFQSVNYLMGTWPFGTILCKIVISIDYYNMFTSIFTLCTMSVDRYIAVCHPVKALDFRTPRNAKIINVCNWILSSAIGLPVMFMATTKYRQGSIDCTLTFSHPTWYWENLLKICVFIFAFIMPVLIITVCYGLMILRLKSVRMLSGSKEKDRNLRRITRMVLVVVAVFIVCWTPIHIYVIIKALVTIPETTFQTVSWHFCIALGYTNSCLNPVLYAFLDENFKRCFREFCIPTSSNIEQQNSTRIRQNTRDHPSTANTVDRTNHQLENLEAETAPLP
Chain of 5-hydroxytryptamine receptor 1E (Homo sapiens) (P28566 whole entry): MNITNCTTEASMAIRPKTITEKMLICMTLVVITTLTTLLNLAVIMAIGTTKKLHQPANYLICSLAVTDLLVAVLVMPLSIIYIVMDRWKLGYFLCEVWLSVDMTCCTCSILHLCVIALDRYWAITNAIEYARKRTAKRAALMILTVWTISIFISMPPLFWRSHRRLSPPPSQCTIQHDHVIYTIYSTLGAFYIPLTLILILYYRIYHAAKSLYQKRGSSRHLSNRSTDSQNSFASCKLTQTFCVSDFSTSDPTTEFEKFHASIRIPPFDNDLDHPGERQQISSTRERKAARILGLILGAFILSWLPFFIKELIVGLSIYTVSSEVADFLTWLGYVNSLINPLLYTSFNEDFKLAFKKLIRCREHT

Structure (SMILES): CCCC(CCC)c1nc2c(Nc3ccc(/C=C/CCCCCCCCN)cc3)nc3ccccc3c2[nH]1
fold change (FC) [4]: 2.5

Structure (SMILES): CCCC(CCC)c1nc2c(Nc3ccc(I)cc3)nc3ccccc3c2n1Cc1ccccc1
Activity [5]: Active | fold change (FC) [4]: 2.5

Structure (SMILES): CCCC(CCC)c1nc2c(Nc3ccc(C#CCCCCCCCCCN)cc3)nc3ccccc3c2[nH]1
Activity [6]: inactive | Activity [7]: inactive | Activity [8]: Active | Activity [9]: inactive | Activity [10]: inactive | Activity (Homo sapiens): inactive | Activity [11]: inactive | Activity [12]: inactive | Activity [13]: inactive | Activity [14]: inactive | Activity [15]: inactive | Activity [16]: inactive | Activity [17]: inactive | Activity [18]: inactive | fold change (FC) [4]: 4 | Activity [19]: inactive | Activity [20]: inactive | Activity [21]: inactive | Activity [22]: inactive | Activity [1]: Active | Activity [23]: inactive

Structure (SMILES): CCCC(CCC)c1nc2c(Sc3ccc(Cl)c(Cl)c3)nc3ccccc3c2[nH]1
Activity [5]: Active | Activity [3]: Active

Structure (SMILES): Clc1ccc(Nc2nc3ccccc3c3nc(C4CCCCC4)oc23)cc1Cl
Activity [2]: Active | Activity [5]: Active

Structure (SMILES): CCCC(CCC)c1nc2c(Nc3ccc(C#CCCCCCCN)cc3)nc3ccccc3c2[nH]1
Activity [8]: Active | Activity [1]: Active

Structure (SMILES): CCCC(CCC)c1nc2c(Nc3ccc(C#CCCCCCCCCN=C(N)N)cc3)nc3ccccc3c2[nH]1
fold change (FC) [4]: 9.5

Structure (SMILES): CCCC(CCC)c1nc2c(Nc3ccc(C#CCCN)cc3)nc3ccccc3c2[nH]1
Activity [1]: Active

Structure (SMILES): CN(c1ccc(Cl)c(Cl)c1)c1nc2ccccc2c2[nH]c(C3CCCCC3)nc12
Activity [3]: Active

The next lines start with the values.

Activity [1]: Active
Structure (SMILES): CCCC(CCC)c1nc2c(Nc3ccc(C#CCN)cc3)nc3ccccc3c2[nH]1

Activity [2]: Active | Activity [3]: Active
Structure (SMILES): Clc1ccc(Nc2nc3ccccc3c3nc(C4CCCCC4)sc23)cc1Cl

Activity [8]: Active | Activity [1]: Active
Structure (SMILES): CCCC(CCC)c1nc2c(Nc3ccc(C#CCCCCCN)cc3)nc3ccccc3c2[nH]1

Activity [5]: Active | Activity [3]: Active
Structure (SMILES): Clc1ccc(Oc2nc3ccccc3c3[nH]c(C4CCCCC4)nc23)cc1Cl

Activity [5]: Active | Activity [3]: Active
Structure (SMILES): CCCC(CCC)c1nc2c(Oc3ccccc3)nc3ccccc3c2[nH]1

fold change (FC) [24]: 9 | Activity [6]: inactive | Activity [7]: inactive | Activity [8]: Active | Activity [9]: inactive | Activity [10]: inactive | Activity (Homo sapiens): inactive | Activity [11]: inactive | Activity [12]: inactive | Activity [13]: inactive | Activity [14]: inactive | Activity [25]: inactive | Activity [15]: inactive | Activity [26]: Active | Emax [27]: 117% | Emax [28]: 112% | Activity [29]: inactive | Activity [16]: inactive | Activity [17]: inactive | Activity [18]: inactive | fold change (FC) [4]: 4 | Emax [30]: 157% | Activity [19]: inactive | Activity [20]: inactive | Activity [21]: inactive | Activity [31]: inactive | Activity [22]: inactive | Activity [32]: inactive | Activity [23]: inactive | Activity [3]: Active
Structure (SMILES): CCCC(CCC)c1nc2c(Nc3ccc(C#CCCCCCCCCN)cc3)nc3ccccc3c2[nH]1
